Experimental data: US20240300894A1, “PRODRUGS OF KV7 CHANNEL OPENERS” (Xyzagen, Inc., priority 2021, published 2024)

Tests used:
[1] = Pharmacokinetics of ezogabine prodrugs in mouse (SC, PO); settings: male mice, PO 20 mg/kg, plasma
Procedure: (§1) Blood was diluted by 10% with these stabilizers.
(§2) Extraction of the molecules was conducted by taking a 50 uL aliquot of plasma and adding 200 uL of acetonitrile containing 200 ng/mL tolbutamide as the internal standard. Samples were precipitated in a 96 well plate, centrifuges and an aliquot transferred to a new plate, dried down under heat and nitrogen and then reconstituted in the initial mobile phase conditions of the LC-MS/MS method. […] A standard curve was prepared from 5000 ng/mL to 1 ng/mL for each analyte. Concentration data from the bioanalytical run was analyzed by Phoenix Winnonlin version 8 for noncompartmental sparse sampling PK analysis, plotting of concentration time curves and tabulation of PK parameters.
Animals were asphyxiated by carbon dioxide gas, blood was collected by cardiac stick and they were euthanized by cervical dislocation.

[2] = in solvent, exposed to light; known; cited from earlier work
[3] = Acid and organic solution stability, HPLC-UV 250 nm; settings: for Colour of solution: by Day 9; for Degradation / conversion to ezogabine in solution: up to 3 weeks, acidic solutions and organic solvents; for Ezogabine Area: room temp., normal light
Procedure: An HPLC-UV Vis method was developed using 0.1% Formic acid in water as mobile phase A and 0.1% Formic acid in acetonitrile as mobile Phase B. A gradient method was developed ramping from 10% A to 90% B over 8 minutes and then returning to 10% A at 8.5 minutes on a 4.6×50 mm Zorbax C-18 column. Injections of 10 uL of stability solutions were injected for analyte detection.
[…] Aliquots were collected at serial time points and then diluted to a nominal concentration of 100 ug/mL for injection to the HPLC and 250 nm monitored by the diode array detector. Data at approximately 10 days is presented.
Aliquots were collected at serial time points and then diluted to a nominal concentration of 100 ug/mL for injection to the HPLC and 250 nm monitored by the diode array detector.
(§3) It was also evaluated at 2 N HCl at 37° C. Aliquots were collected at serial time points and then diluted to a nominal concentration of 100 ug/mL for injection to the HPLC and 250 nm monitored by the diode array detector.
as §3, §3, §3

[4] = Pharmacokinetics of ezogabine prodrugs in rat (IV, IM, PO); settings: male Sprague Dawley rats, PO 20 mg/kg
Procedure: as §1
as §2, with “noncompartmental” for “noncompartmental sparse sampling”
150 uL of blood were collected at predesignated time points. At completion of the study animals were asphyxiated by carbon dioxide gas and exsanguinated for euthanasia.

[5] = human, in vivo; cited from earlier work
[6] = tested on: CCI model of neuropathic pain; test: CCI model of neuropathic pain (pin prick, von Frey); type: in vivo, rat; settings: male Sprague Dawley rats
Procedure: Compound 3 was tested for reversal of mechanical hypersensitivity to the pin prick test for hindlimb paw withdraw and the von Frey hairs for gram force mechanical allodynia in the CCI model of neuropathic pain. Male Sprague Dawley rats (n=8/group) were tested for baseline sensitivity on Day 1 (ipsilateral and contralateral paws) and administered XYG-203 orally; 40 mg/kg on Day 1, 20 mg/kg Day 3, 10 mg/kg Day 5, 5 mg/kg Day 7, 1 mg/kg Day 10 and baseline on Day 12. Mechanical hypersensitivity was tested 1 h after pretreatment. Data (mean±SD) were analyzed with a repeated measures ANOVA with Dunnet's adjustment for multiple comparisons.

[7] = Drug concentration analysis after MES in CF-1 mice; settings: for Plasma concentration of Compound 1 relative to administration of Compound 1 alone: CF-1, mouse, in vivo, ip
Source text: (§4) Each male CF-1 mouse provided one data point in the MES assay and one data point in the concentration analysis. There were 8 mice per time point.

[8] = Benchtop solution stability exposed to light, HPLC-UV 230 nm; type: physicochemical
Procedure: Compounds in solvent were left on the benchtop exposed to light for up to 7 days since it is known that Compound 1 will degrade with light within 3-7 days.
Stability was assessed by taking an aliquot from the solubility vials at each test day. A single replicate was injected for each test condition.
Samples were injected onto an HPLC system with an aqueous mobile phase and acetonitrile organic phase and compounds were separated on a C8 50×2 mm column. Wavelength 230 nm was monitored for absorption and integrated for peak area while the mass spectrometer was used to confirm mass. Samples were tested on Day 1 and on subsequent days through Day 7.

[9] = Rat PK at equimolar dose to Ezogabine in 0.5% methylcellulose; settings: for AUClast/D, analyte = dosed prodrug: male, rat, in vivo, 20 mg/kg; for Exposure of ezogabine compared with ezogabine itself (dose normalized AUC): rats, equimolar dose to Ezogabine (20 mg/kg)
Procedure: (§5) Blood samples were collected at the same time points over 24 hours to generate a concentration time profile. Two male rats were dosed per group. Plasma samples were analyzed by LC/MS/MS and the resulting concentration time profiles and PK parameters are provided.
as §5, §5

[10] = tested on: 5% formalin intraplantar injection; test: Formalin inflammatory model (hind paw flicks/licks); type: in vivo, mouse; settings: 100 mg/kg in water SC 30 minutes before 5% formalin; both phases (0-10 min, 15-40 min)
Procedure: Compound 4 was assessed in the rat formalin inflammatory model. The number of flicks/licks of a male CD-1 mouse in the acute phase 0-10 minute and the inflammatory phase from 15-40 min after intraplantar administration of 50 μL of 5% formalin was recorded. […] Data is presented over the duration of the observation periods in 2 minute bins.

MES Induced Seizures [11] = test: Maximal electroshock (MES) test in SD rats; type: in vivo, rat; settings: IM 75 mg/kg
Procedure: All treatments were at 0.083, 0.25, 0.5, 1, 2, 4, and 8 hours prior to the administration of MES test, where 6 seconds where 6 seconds without a seizure was considered protected.

[12] = rat, 6 h, 1000 ng/mL
Procedure: Plasma was collected by the biomaterial vendor and kept frozen at −20° C.
The samples were analyzed by HPLC separation and mass spectrometry detection for prodrug amount, relative to a baseline time 0 control sample. Triplicate samples were generated at each time point and the peak area response was averaged and converted to a percent of baseline control.

MES induced seizures [13] = test: Maximal electroshock (MES) test in CF-1 mice; type: in vivo, mouse; settings: IP 1.5, 3, 6, 12 and 24 mg/kg
Procedure: All treatments were administered 30 minutes prior to MES, except for Phenytoin which was administered 1 h prior.
as §4

For `CCOC(=O)Nc1ccc(NCc2ccc(F)cc2)cc1N` [Compound 1, Ezogabine], the “Cmax/D, analyte Cmpd 1” value [1] is listed as 148 ng/mL/mg/kg, the “AUClast/D, analyte Cmpd 1” value ([1]; AUClast 6 h) is listed as 190 ng·h/mL/mg/kg and the “Time within which compound degrades with light” value [2] is listed as 3 to 7 days. The “Day by which solution was turning light purple (indicating degradation)” value ([3]; 5 mg/mL, acid solutions, room temperature) was “up to 2 Day”, the “Day at which solution began turning purple” value ([3]; 5 mg/mL, organic solvent solutions, room temperature) was at least 7 days and the “Cmax/D, analyte Cmpd 1” value [4] was 44.8 ng/mL/mg/kg. For the same compound, the “AUClast/D, analyte Cmpd 1” value ([4]; AUClast […] h) was 280 ng·h/mL/mg/kg, the “Adverse reaction rate: abnormal coordination” value [5] was 7% and the “Adverse reaction rate: aphasia” value [5] was 4%. The “Adverse reaction rate: asthenia” value [5] was 5%, the “Adverse reaction rate: balance disorder” value [5] was 4% and the “Adverse reaction rate: blurred vision” value [5] was 5%. The “Adverse reaction rate: confusional state” value [5] was 9%, the “Adverse reaction rate: diplopia” value [5] was 7% and the “Adverse reaction rate: disturbance in attention” value [5] was 6%. For the same compound, the “Adverse reaction rate: dizziness” value [5] was 23%, the “Adverse reaction rate: dysarthria” value [5] was 4% and the “Adverse reaction rate: fatigue” value [5] was 15%. The “Adverse reaction rate: gait disturbance” value [5] was 4%, the “Adverse reaction rate: memory impairment” value [5] was 6% and the “Adverse reaction rate: somnolence” value [5] was 22%. For the same compound, the “Adverse reaction rate: tremor” value [5] was 8% and the “Adverse reaction rate: vertigo” value [5] was 8%.
With `CCOC(=O)Nc1ccc(NCc2ccc(F)cc2)cc1NC(=O)OC(C)OC(=O)C(C)C` (stereo not shown) [Compound 3] the “Mechanical hypersensitivity versus baseline” value ([6]; oral 5 mg/kg) was 95% confidence intervals did not cross the baseline mean, the “Gram force to paw lift (von Frey)” value ([6]; oral 40 mg/kg, 1 h after pretreatment) was “increased the gram force to paw lift significantly” and the “Reduction of latency of neuropathic ipsilateral paw withdrawal (pin prick)” value ([6]; oral 40 mg/kg, 1 h after pretreatment, p=0.0003) was 9.2 s. The “Plasma concentration of Compound 1 relative to administration of Compound 1 alone” value [7] was 5.5 fold, the Colour of solution ([3]; 5 mg/mL, 0.1 N HCl) was “turned a light tan” and the Colour of solution ([3]; 5 mg/mL, 1 N HCl) was “turned a golden yellow”. For the same compound, the “Solution clear and colorless through” value ([3]; 5 mg/mL, organic solvents) was at least 18 days, the “Degradation / conversion to ezogabine in solution” value (from here on “Degradation / conversion”) ([3]; 5 mg/mL) was “converts to ezogabine under acidic conditions but does not in organic solvent” and the “Ezogabine Area” value ([3]; 0.1N HCl, 433 h) was 400 mAU. For the same compound, the “Ezogabine Area” value ([3]; Acetonitrile, 435 h) was 51 mAU, the “Ezogabine Area” value ([3]; Ethanol, 390 h) was 43 mAU and the “Ezogabine Area” value ([3]; Methanol, 435 h) was 41 mAU. The Stability in solvent ([8]; 0.1 N HCl, over 4 days) was “appears to be stable”, the Stability in solvent ([8]; ethanol and methanol) was “stable through 3 days” and the “AUClast/D, analyte = dosed prodrug” value [9] was 0.0136 ng·h/mL/mg/kg.
For `CCOC(=O)Nc1ccc(NCc2ccc(F)cc2)cc1NC(=O)[C@@H](N)CCCCN` [Compound 4], the “Plasma concentration of Compound 1 relative to administration of Compound 1 alone” value [7] was 9 fold, the “Solution remained clear and colorless through” value ([3]; 5 mg/mL, all test solutions) was at least 18 days and the “Degradation / conversion” value ([3]; 5 mg/mL) was “very little degradation to ezogabine”. The “Ezogabine Area” value ([3]; 0.1N HCl, 269 h) was 0 mAU, the “Ezogabine Area” value ([3]; 1N HCl, 269 h) was 0 mAU and the “Ezogabine Area” value ([3]; 2N HCl, 269 h) was 38 mAU. The “Ezogabine Area” value ([3]; Methanol, 437 h) was 0 mAU, the “Ezogabine Area” value ([3]; PBS, 435 h) was 0 mAU and the “Reduction in behavioral response (flicks/licks) compared to vehicle” value [10] was 50%. The “Protection from MES seizures” value (MES Induced Seizures [11]; 2 through 8 hours post dose) was “fully protected”, the “Protection from MES seizures” value (MES Induced Seizures [11]; 1 h post dose) was “almost fully protected” and the Stability in plasma [12] was “stable through 6 hours”. The “AUClast/D, analyte = dosed prodrug” value [9] was 6.26 ng·h/mL/mg/kg and the “Exposure of ezogabine compared with ezogabine itself (dose normalized AUC)” value [9] was “similar”.
For `CCOC(=O)Nc1ccc(NCc2ccc(F)cc2)cc1NC(=O)[C@H](N)CO` [Compound 6], the “Solution remained clear and colorless through” value ([3]; 5 mg/mL, all test solutions) was at least 18 days, the “Degradation / conversion” value ([3]; 5 mg/mL) was “very little degradation to ezogabine” and the “Ezogabine Area” value ([3]; 1N HCl, 437 h) was 58 mAU. The “AUClast/D, analyte = dosed prodrug” value [9] was 199 ng·h/mL/mg/kg and the “Exposure of ezogabine compared with ezogabine itself (dose normalized AUC)” value [9] was “similar”.
In the case of `CCOC(=O)Nc1ccc(NCc2ccc(F)cc2)cc1NC(=O)C[C@@H](CN)CC(C)C` [Compound 28], the “Concentration of prodrug relative to ezogabine” value ([7]; CF-1 mice, IP, 30 minutes) is reported as “present at higher concentrations than ezogabine”, the “Solution remained clear and colorless through” value ([3]; 5 mg/mL, acidic solutions) is reported as at least 18 days and the “Solution remained clear and colorless through” value ([3]; 5 mg/mL, acidic solutions and acetonitrile) is reported as at least 11 days. For the same compound, the “Degradation / conversion” value ([3]; 5 mg/mL) was “degradation to ezogabine with increasing strength of the acidic solution”, the “Ezogabine Area” value ([3]; 0.1N HCl, 440 h) was 0 mAU and the “% Remaining” value ([3]; 440 h, 5 mg/mL) was 92.0%. For the same compound, the “Ezogabine Area” value ([3]; Methanol, 440 h) was 0 mAU, the “Complete protection against MES induced seizures” value (MES induced seizures [13]) was “None of the doses showed complete protection” and the “AUClast/D, analyte = dosed prodrug” value [9] was 83.0 ng·h/mL/mg/kg. The “Exposure of ezogabine compared with ezogabine itself (dose normalized AUC)” value [9] was “lower exposure”.
